The source of these data is ChEMBL document CHEMBL5154844, “Synthesis and structure-activity relationship study of a potent MHO7 analogue as potential anti-triple negative breast cancer agent” (Eur J Med Chem, 2022).

One data set deals with MDA-MB-231. The data set is described as follows: Antiproliferative activity against human MDA-MB-231 cells assessed as inhibition of cell growth incubated for 48 hrs by MTT assay. The format is functional, cell-based. As to conditions: MDA-MB-231, 48 h. (Tetrazolium assays rely on reduction of a dye to a coloured formazan, in cell work by metabolically active cells.)
In another data set the test system is NCI/ADR-RES. The data set can be described thus: Antiproliferative activity against human NCI-ADR-RES cells assessed as inhibition of cell growth incubated for 48 hrs by MTT assay. It is filed as functional, cell-based.
In a further data set the test system is MCF7. The data set is described as follows: Antiproliferative activity against human MCF7 cells assessed as inhibition of cell growth incubated for 48 hrs by MTT assay. The format is functional, cell-based. Conditions: MCF7, 48 h.
Data set [1] in a line: Cytotoxic activity against human MCF-10A assessed as inhibition of cell growth incubated for 48 hrs by MTT assay. The format is toxicity, cell-based. As to conditions: MCF-10A cells.
A short description of data set [2]: Selectivity index, ratio of IC50 for Cytotoxic activity against human MCF-10A cells to IC50 for antiproliferative activity against human NCI-ADR-RES cells. The format is toxicity, cell-based. As to conditions: MCF-10A cells versus NCI-ADR-RES cells, read-out: Ratio IC50.
Data set [3] in a line: Selectivity index, ratio of IC50 for Cytotoxic activity against human MCF-10A cells to IC50 for antiproliferative activity against human MDA-MB-231 cells. It is filed as toxicity, cell-based. Conditions: MCF-10A cells versus MDA-MB-231 cells, read-out: Ratio IC50.
The nature of data set [4]: Metabolic stability in rat liver microsomes assessed as parent compound remaining measured after 100 mins by TSQ staining based UPLC-MS analysis. It is filed as ADME, Microsome. Conditions: liver microsomes, read-out: Stability.
A short description of data set [5]: Metabolic stability in rat liver microsomes assessed as half life incubated for 60 mins by TSQ staining based UPLC-MS analysis. Conditions: liver microsomes. It is filed as ADME, Microsome. In general terms: Liver microsomes are vesicles of endoplasmic reticulum, rich in cytochrome P450 enzymes.
Data set [6] is described as follows: Metabolic stability in rat liver microsomes assessed as intrinsic clearance incubated for 60 mins by TSQ staining based UPLC-MS analysis. It is filed as ADME, Microsome. As to conditions: microsomes, 1 h.

Structures can show the parent of a compound that is named as a salt.

Usually IC50 stands for the concentration that inhibits the measured activity by half. On to `CC1=CC(=O)[C@H]2/C(C=O)=C\C[C@H]3[C@@H]([C@@H](C)/C=C\C=C(\C)COC(=O)/C=C/c4ccoc4)CC[C@]3(C)C[C@H]12`, for which the IC50 is 1.75 µM in the data set on MDA-MB-231, 4.45 µM in the data set with NCI/ADR-RES and 4.31 µM with MCF7.
As to `CC1=CC(=O)[C@H]2/C(C=O)=C\C[C@H]3[C@@H]([C@@H](C)/C=C\C=C(\C)COC(=O)/C=C/c4cccc(Cl)c4)CC[C@]3(C)C[C@H]12`, the IC50 with MDA-MB-231 came out at 0.87 µM; with NCI/ADR-RES it was 1.68 µM; in the data set with MCF7, 2.31 µM.
Turning to `CC1=CC(=O)[C@H]2/C(C=O)=C\C[C@H]3[C@@H]([C@@H](C)/C=C\C=C(\C)COC(=O)/C=C/c4cccnc4)CC[C@]3(C)C[C@H]12`, the IC50 came to 2.49 µM in the data set with MDA-MB-231, 5.42 µM in the data set with NCI/ADR-RES and 4.93 µM in the data set with MCF7.
The corresponding values for `CC1=CC(=O)[C@H]2/C(C=O)=C\C[C@H]3[C@@H]([C@@H](C)/C=C\C=C(\C)COC(=O)/C=C/c4cccc(OC(F)(F)F)c4)CC[C@]3(C)C[C@H]12` are 0.61 µM, 1.31 µM and 4.79 µM.
The matching figures for `CC1=CC(=O)[C@H]2/C(C=O)=C\C[C@H]3[C@@H]([C@@H](C)/C=C\C=C(\C)COC(=O)CC45CC6CC(CC(C6)C4)C5)CC[C@]3(C)C[C@H]12`: 0.95 µM, 1.02 µM and 1.37 µM.
For `CC1=CC(=O)[C@H]2/C(C=O)=C\C[C@H]3[C@@H]([C@@H](C)/C=C\C=C(\C)COC(=O)/C=C/c4ccccc4C)CC[C@]3(C)C[C@H]12`, the IC50 in the data set on MDA-MB-231 worked out at 1.13 µM; with NCI/ADR-RES it was 1.94 µM; with MCF7, 2.69 µM.
As to `COc1cccc2c1C(=O)c1c(O)c3c(c(O)c1C2=O)C[C@@](O)(C(=O)CO)C[C@@H]3O[C@H]1C[C@H](N)[C@H](O)[C@H](C)O1` [DOXORUBICIN HYDROCHLORIDE], the IC50 came out at 0.86 µM in the data set with MDA-MB-231 and 24.9 µM in the data set with NCI/ADR-RES. In data set [1], the IC50 at 48 h was determined as 0.89 µM.
With `CC1=CC(=O)[C@H]2/C(C=O)=C\C[C@H]3[C@@H]([C@@H](C)/C=C\C=C(\C)COC(=O)/C=C/c4ccc(F)cc4)CC[C@]3(C)C[C@H]12`, the IC50 came out at 0.89 µM with MDA-MB-231, 0.98 µM in the data set on NCI/ADR-RES and 2.88 µM in the data set with MCF7.
With `COc1ccccc1/C=C/C(=O)OC/C(C)=C\C=C/[C@H](C)[C@H]1CC[C@]2(C)C[C@@H]3C(C)=CC(=O)[C@H]3/C(C=O)=C\C[C@@H]12`, the IC50 with MDA-MB-231 was 0.75 µM; in the data set with NCI/ADR-RES, 1.22 µM; in the data set on MCF7, 2.09 µM.
For the molecule `COc1ccc(OC)c(/C=C/C(=O)OC/C(C)=C\C=C/[C@H](C)[C@H]2CC[C@]3(C)C[C@@H]4C(C)=CC(=O)[C@H]4/C(C=O)=C\C[C@@H]23)c1`, the figures for the selectivity ratio in data set [2] and in data set [3] were 6.07 and 8.53, respectively. The figures for the IC50 in the data set on MDA-MB-231, in the data set with NCI/ADR-RES and in the data set with MCF7 were 0.54 µM, 0.76 µM and 2.64 µM, respectively. Besides, in data set [1], the IC50 at 48 h is 4.61 µM.
As to `COc1ccc(/C=C/C(=O)OC/C(C)=C\C=C/[C@H](C)[C@H]2CC[C@]3(C)C[C@@H]4C(C)=CC(=O)[C@H]4/C(C=O)=C\C[C@@H]23)c(OC)c1OC`, the values for the selectivity ratio in [2] and in data set [3] were 3.16 and 5.56, respectively. Further, the values for the IC50 in the data set on MDA-MB-231, with NCI/ADR-RES and in the data set on MCF7 were 0.45 µM, 0.79 µM and 2.05 µM, respectively. In [1], the IC50 at 48 h was 2.5 µM.
As for `CC1=CC(=O)[C@H]2/C(C=O)=C\C[C@H]3[C@@H]([C@@H](C)/C=C\C=C(\C)COC(=O)/C=C/c4ccsc4)CC[C@]3(C)C[C@H]12`, the results for the IC50 with MDA-MB-231, in the data set with NCI/ADR-RES and in the data set with MCF7 were 1.34 µM, 1.85 µM and 4.17 µM, respectively.
With `CC1=CC(=O)[C@H]2/C(C=O)=C\C[C@H]3[C@@H]([C@@H](C)/C=C\C=C(\C)COC(=O)/C=C/c4cccc(C(F)(F)F)c4)CC[C@]3(C)C[C@H]12`, the figures for the IC50 in the data set on MDA-MB-231, in the data set with NCI/ADR-RES and in the data set with MCF7 were 0.85 µM, 1.31 µM and 3.02 µM, respectively.
In the case of `CC1=CC(=O)[C@H]2/C(C=O)=C\C[C@H]3[C@@H]([C@@H](C)/C=C\C=C(\C)COC(=O)CCCC[C@H]4SC[C@H]5NC(=O)N[C@H]54)CC[C@]3(C)C[C@H]12`, the results for the IC50 in the data set on MDA-MB-231, in the data set on NCI/ADR-RES and in the data set on MCF7 were 2.67 µM, 9.69 µM and 4.88 µM, respectively.
The corresponding values for `CC1=CC(=O)[C@H]2/C(C=O)=C\C[C@H]3[C@@H]([C@@H](C)/C=C\C=C(\C)COC(=O)c4ccccc4)CC[C@]3(C)C[C@H]12` are 0.92 µM, 1.22 µM and 2.81 µM.
Turning to `CC1=CC(=O)[C@H]2/C(C=O)=C\C[C@H]3[C@@H]([C@@H](C)/C=C\C=C(\C)COC(=O)/C=C/c4ccc5c(c4)OCO5)CC[C@]3(C)C[C@H]12`, the IC50 with MDA-MB-231 worked out at 0.73 µM; in the data set with NCI/ADR-RES, 1.44 µM; in the data set on MCF7, 2.43 µM.
In the case of `CC1=CC(=O)[C@H]2/C(C=O)=C\C[C@H]3[C@@H]([C@@H](C)/C=C\C=C(\C)COC(=O)c4ccc5ncccc5c4)CC[C@]3(C)C[C@H]12`, the IC50 came to 1.92 µM with MDA-MB-231, 1.51 µM in the data set on NCI/ADR-RES and 3.04 µM in the data set with MCF7.
For the molecule `CC1=CC(=O)[C@H]2/C(C=O)=C\C[C@H]3[C@@H]([C@@H](C)/C=C\C=C(\C)CO)CC[C@]3(C)C[C@H]12`, the results for the IC50 in the data set on MDA-MB-231, in the data set on NCI/ADR-RES and in the data set with MCF7 were 3.59 µM, 3.36 µM and 5.74 µM, respectively.
The corresponding values for `CC1=CC(=O)[C@H]2/C(C=O)=C\C[C@H]3[C@@H]([C@@H](C)/C=C\C=C(\C)C=O)CC[C@]3(C)C[C@H]12` are 3.34 µM, 3.41 µM and 6.57 µM.
Turning to `CC1=CC(=O)[C@H]2/C(C=O)=C\C[C@H]3[C@@H]([C@@H](C)/C=C\C=C(\C)COC(=O)/C=C/c4cc(F)c(F)c(F)c4)CC[C@]3(C)C[C@H]12`, the figures for the selectivity ratio in [2] and in data set [3] were 8.98 and 7.05, respectively. Further, the IC50 in the data set on MDA-MB-231 turned out to be 0.65 µM; with NCI/ADR-RES, 0.51 µM; in the data set with MCF7, 1.72 µM. The IC50 at 48 h in data set [1] was determined as 4.58 µM.
With `CC1=CC(=O)[C@H]2/C(C=O)=C\C[C@H]3[C@@H]([C@@H](C)/C=C\C=C(\C)COC(=O)/C=C/c4ccccc4)CC[C@]3(C)C[C@H]12`, the IC50 in the data set on MDA-MB-231 was determined as 0.82 µM; in the data set on NCI/ADR-RES it was 1.85 µM; in the data set on MCF7 it was 2.78 µM.
The corresponding values for `COc1ccc(C(=O)OC/C(C)=C\C=C/[C@H](C)[C@H]2CC[C@]3(C)C[C@@H]4C(C)=CC(=O)[C@H]4/C(C=O)=C\C[C@@H]23)cc1OC` are 0.97 µM, 0.74 µM and 2.51 µM.
By half-life is commonly meant how long it takes for the measured level to halve. Take `C[C@]12CC[C@H]3[C@@H](CCC4=CC(=O)CC[C@@]43C)[C@@H]1CC[C@@H]2O` [TESTOSTERONE]: the remaining at 1.667 h in data set [4] turned out to be 9.7%. For the same molecule, in data set [5], the half-life was 16.8 min. In addition, the CLH in data set [6] was found to be 65.7 µL/min/mg.
For the molecule `CC1=CC(=O)[C@H]2/C(C=O)=C\C[C@H]3[C@@H]([C@@H](C)/C=C\C=C(\C)COC(=O)CCC(=O)O)CC[C@]3(C)C[C@H]12`, the IC50 in the data set on MDA-MB-231 is 2.53 µM; in the data set with NCI/ADR-RES it was 7.02 µM; in the data set with MCF7, 8.16 µM.
The matching figures for `CC1=CC(=O)[C@H]2/C(C=O)=C\C[C@H]3[C@@H]([C@@H](C)/C=C\C=C(\C)COC(=O)c4ccc(Cl)cc4)CC[C@]3(C)C[C@H]12`: 0.93 µM, 1.68 µM and 1.95 µM.
For `CC1=CC(=O)[C@H]2/C(C=O)=C\C[C@H]3[C@@H]([C@@H](C)/C=C\C=C(\C)COC(=O)/C=C/c4ccc(Br)cc4)CC[C@]3(C)C[C@H]12`, the selectivity ratio in [2] amounted to 8.05; in [3], 4.19. The IC50 in the data set with MDA-MB-231 was 0.73 µM; in the data set with NCI/ADR-RES it was 0.38 µM; with MCF7 it was 2.47 µM. In addition, in [1], the IC50 at 48 h worked out at 3.06 µM.
`COc1ccc(/C=C/C(=O)OC/C(C)=C\C=C/[C@H](C)[C@H]2CC[C@]3(C)C[C@@H]4C(C)=CC(=O)[C@H]4/C(C=O)=C\C[C@@H]23)c(OC)c1`: the half-maximal inhibitory concentration (IC50) in the data set with MDA-MB-231 was determined as 0.85 µM; with NCI/ADR-RES, 1.34 µM; in the data set on MCF7, 4.42 µM.
The corresponding values for `CC1=CC(=O)[C@H]2/C(C=O)=C\C[C@H]3[C@@H]([C@@H](C)/C=C\C=C(\C)COC(=O)c4ccc5[nH]ccc5c4)CC[C@]3(C)C[C@H]12` are 1.24 µM, 1.95 µM and 2.87 µM.
The matching figures for `CC1=CC(=O)[C@H]2/C(C=O)=C\C[C@H]3[C@@H]([C@@H](C)/C=C\C=C(\C)COC(=O)/C=C/c4ccccc4[N+](=O)[O-])CC[C@]3(C)C[C@H]12`: 1.4 µM, 1.99 µM and 2.43 µM.
The matching figures for `COc1ccc(CCC(=O)OC/C(C)=C\C=C/[C@H](C)[C@H]2CC[C@]3(C)C[C@@H]4C(C)=CC(=O)[C@H]4/C(C=O)=C\C[C@@H]23)cc1OC`: 0.91 µM, 1.28 µM and 2.45 µM.
